Measured values taken from patent US10807968B2, “Substituted 2-(het)arylimidazolylcarboxyamides as pesticides” (Bayer CropScience Aktiengesellschaft, priority 2016, dated 2020).
Read-outs that look alike come from different tables or passages of the source.

How the values were obtained:
[1] = log P determination by HPLC on reversed-phase (C18) columns, OECD Guideline 117; assay type: physicochemical; settings: for chromatographic logP: reversed-phase (C18) HPLC column
Procedure: The log P values were determined in accordance with OECD Guideline 117 (EC Directive 92/69/EEC) by HPLC (high-performance liquid chromatography) using reversed-phase (RP) columns (C18), by the following methods:
[a] The LC-MS determination in the acidic range was carried out at pH 2.7 with 0.1% aqueous formic acid and acetonitrile (contains 0.1% formic acid) as mobile phases; linear gradient from 10% acetonitrile to 95% acetonitrile.
[b] LC-MS determination in the neutral range was carried out at pH 7.8 with 0.001 molar aqueous ammonium hydrogencarbonate solution and acetonitrile as mobile phases; linear gradient from 10% acetonitrile to 95% acetonitrile.

Myzus persicae [2] = test: Myzus persicae - spray test (Chinese cabbage leaf discs); assay type: in vivo; settings: 500 g/ha, after 6 days; for pest or weed control at 500 g/ha: Myzus persicae, foliar, 144 h, read-out: efficacy in % (aphids killed)
Procedure: Myzus persicae—Spray Test
Solvent: 78 parts by weight of acetone • • 1.5 parts by weight of dimethylformamide
Emulsifier: alkylaryl polyglycol ether
To produce a suitable preparation of active compound, 1 part by weight of active compound is dissolved using the specified parts by weight of solvent and made up with water containing an emulsi fier concentration of 1000 ppm until the desired concentration is attained. To produce further test concentrations, the formulation is diluted with emulsifier-containing water.
Discs of Chinese cabbage leaves (Brassica pekinensis) infested by all stages of the green peach aphid (Myzus persicae) are sprayed with an active compound formulation of the desired concentration.
After 6 days, the efficacy in % is determined. 100% means that all the aphids have been killed; 0% means that no aphids have been killed.

Myzus persicae [3] = test: Myzus persicae - oral test; assay type: in vivo; settings: after 5 days; for efficacy in % (aphids killed): 20 ppm; for pest or weed control at 20 ppm: Myzus persicae, 120 h, read-out: efficacy in % (aphids killed)
Procedure: Solvent: 100 parts by weight of acetone
Subsequently, the plates are sealed with parafilm, which a mixed population of green peach aphids (Myzus persicae) within a second microtitre plate is able to puncture and imbibe the solution through it.
After 5 days, the efficacy in % is determined. 100% means that all the aphids have been killed; 0% means that no aphids have been killed.

[4] = HPLC, acidic range pH 2.7, 0.1% aqueous formic acid/acetonitrile
[5] = HPLC, neutral range pH 7.8, 0.001 molar aqueous ammonium hydrogencarbonate/acetonitrile
[6] = pH 2.7, HPLC, acidic range pH 2.7, 0.1% aqueous formic acid/acetonitrile, read-out: logp-acidic
[7] = pH 7.8, HPLC, neutral range pH 7.8, 0.001 molar aqueous ammonium hydrogencarbonate/acetonitrile, read-out: logp-neutral

Compound | logp-acidic ([1]; pH 2.7) | logp-neutral ([1]; pH 7.8) | efficacy in % (aphids killed) (Myzus persicae [2]) | efficacy in % (aphids killed) (Myzus persicae [3]) | logp-acidic [1, 4] | logp-neutral [1, 5] | chromatographic logP [1, 6] | chromatographic logP [1, 7] | pest or weed control at 500 g/ha (Myzus persicae [2]) | pest or weed control at 20 ppm (Myzus persicae [3])
CN(C(=O)c1cnc(-c2cccc3ccccc23)n1C)c1cccnc1 [Example 27] | 1.35 | 1.89 | 90% | 100% |  |  |  |  |  | 
CN(C(=O)c1cnc(-c2ccc(F)c(C#N)c2)n1C)c1cccnc1 [Example 63] |  |  | 90% | 100% | 1.15 | 1.52 |  |  |  | 
COC(=O)c1cc(F)ccc1-c1ncc(C(=O)N(C)c2cccnc2)n1C [Example 29] | 1.04 | 1.55 | 90% | 100% |  |  |  |  |  | 
Cc1cc(F)c(-c2ncc(C(=O)N(C)c3cccnc3)n2C)cc1SCC(F)(F)F [Example 2] |  |  |  |  |  |  | 2.23 | 2.48 | 90% | 100%
CN(C(=O)c1cnc(-c2cccnc2)n1C)c1cccnc1 [Example 7] |  |  |  |  |  |  | 0.18 |  | 90% | 100%
COc1ccccc1-c1ncc(C(=O)N(C)c2cccnc2)n1C [Example 82] | 0.65 | 1.45 | 100% | 100% |  |  |  |  |  | 
CN(C(=O)c1cnc(-c2ccc(Cl)c(C#N)c2)n1C)c1cccnc1 [Example 59] |  |  | 90% | 100% | 1.42 | 1.69 |  |  |  | 
CN(C(=O)c1cnc(-c2ccc(C#N)c(C(F)(F)F)c2)n1C)c1cccnc1 [Example 55] |  |  |  |  |  |  | 1.72 | 1.92 | 90% | 100%
CCOc1ncccc1-c1ncc(C(=O)N(C)c2cccnc2)n1C [Example 92] | 0.8 | 1.43 | 90% | 100% |  |  |  |  |  | 
COc1ccc(C#N)cc1-c1ncc(C(=O)N(C)c2cccnc2)n1C [Example 62] |  |  | 100% | 100% | 0.78 | 1.37 |  |  |  | 
COc1cc(-c2ncc(C(=O)N(C)c3cccnc3)n2C)cc(OC)n1 [Example 97] | 1.37 | 1.67 | 100% | 100% |  |  |  |  |  | 
CN(C(=O)c1cnc(-c2cnn(-c3ccc(F)cc3)c2)n1C)c1cccnc1 [Example 25] | 1.21 | 1.68 | 90% | 100% |  |  |  |  |  | 
CN(C(=O)c1cnc(-c2cc(Cl)cc(C#N)c2)n1C)c1cccnc1 [Example 69] |  |  | 100% | 100% | 1.52 | 1.74 |  |  |  | 
CN(C(=O)c1cnc(-c2cccc(C(F)F)c2)n1C)c1cccnc1 [Example 48] | 1.22 | 1.65 | 100% | 100% |  |  |  |  |  | 
CCOc1ncc(-c2ncc(C(=O)N(CC)c3cccnc3)n2C)cc1C#N [Example 76] | 1.69 | 1.95 | 90% | 100% |  |  |  |  |  | 
CN(C(=O)c1cnc(-c2cccc(SCC3CC3)c2)n1C)c1cccnc1 [Example 18] | 1.87 | 2.36 | 90% | 100% |  |  |  |  |  | 
CSc1cc(-c2ncc(C(=O)N(C)c3cccnc3)n2C)ccc1C [Example 23] | 1.43 | 2.03 | 100% | 100% |  |  |  |  |  | 
CN(C(=O)c1cnc(-c2cn(C)nn2)n1C)c1cccnc1 [Example 74] |  |  |  |  |  |  | 0.27 | 0.76 | 100% | 100%
